Consider three compounds from patent publication US11969425B2, “Inhibitor of indoleamine-2,3-dioxygenase (IDO)” (InventisBio LLC, priority 2016, dated 2024).

Series [1] concerns kynurenine production in SKOV-3 cells. Put plainly: Inhibition of kynurenine production in SKOV-3 cells. Format: cell-based, human. The protocol: The effect of compounds described herein on the inhibition of kynurenine production in HeLa cells (derived from human cervical cancer) was determined. HeLa cells were seeded into a 96-well culture plate at a density of 5×10^3 per well in RPMI1640/phenol red free media (from GIBCO) with 2 mM L-glutamine and 10% fetal bovine serum (FBS, from GIBCO) and grown overnight in a 37° C. incubator with 5% CO2. Twenty-four hours later, human IFN-γ (from GIBCO) (final concentration 50 ng/mL) and test compound solutions (serially diluted to different wells) were added to each well with a final volume of 200 uL per well. Forty-eight hours after incubation with compounds, 140 uL supernatant was taken from each well and was transferred to a new 96-well plate. Ten microliters of 6.1 N trichloroacetic acid were added into each well, mixed and incubated at 50° C. for 30 minutes. […] The yellow color derived from kynurenine was measured at 480 nm using a SPECTRAmax i3 reader. Each compound concentration was done in triplicates and compound IC50 value was calculated using nonlinear regression using Graphpad Prism 5.0.
The effect of compounds described herein on the inhibition of kynurenine production in SKOV-3 cells (derived from human ovarian cancer) was determined using a similar experimental procedure as described in Example A. Exemplary results are shown in FIG. 1. […]

A short description of series [2]: Human hepatocyte clearance study. Format: in vitro ADME. The following applies: pooled cryopreserved human hepatocytes (suspension); for CLint scaled at 1 µM: human, scaled up from in vitro t1/2, scaling factor 2544.3, read-out: Human Scale-up Clint; for hepatocyte CLint at 1 µM / half-life at 1 µM: pooled human hepatocytes; for hepatocyte CLint at 1 µM: read-out: Human In vitro Clint (μL/min/10^6 cells); for half-life at 1 µM: read-out: Human In vitro T1/2. The protocol: (§1) The in vitro human hepatocyte clearance of compounds described here was studied using pooled human hepatocytes purchased from BioreclamationIVT (Westbury, NY, Cat #X008001, Lot #TQJ). The assay was conducted according to manufacture's instruction. Briefly, 10 mM stock solutions of test compounds and positive control (Verapamil) were prepared in 100% DMSO. Thawing media (50 mL) used in the study consists of: 31 mLWilliams E medium (GIBCO Cat #12551-032); 15 mL isotonic percoll (GE Healthcare Cat #17-0891-09); 500 uL 100XGlutaMax (GIBCO Cat #35050); 750 uL HEPES (GIBCO Cat #15630-080); 2.5 mL FBS (Corning Cat #35-076*CVR); 50 uL human insulin (GIBCO Cat #12585-014) and 5 uL dexamethasone (NICPBP). Incubation media is made of Williams E medium supplemented with 1xGlutaMax. Both thawing medium and incubation medium (serum-free) were placed in a 37° C. water bath for at least 15 minutes prior to use. Compound stock solutions were diluted to 100 μM by combining 198 μL of 50% acetonitrile/50% water and 2 μL of 10 mM stock solution. Verapamil was use as positive control in the assay. Vials of cryopreserved hepatocytes were removed from storage and thawed in a 37° C. water bath with gentle shaking. Contents of the vial were poured into the 50 mL thawing medium conical tube. Vials were centrifuged at 100 g for 10 minutes at room temperature. Thawing medium was aspirated and hepatocytes were re-suspended with serum-free incubation medium to yield ˜1.5×10^6 cells/mL. Hepatocyte viability and density were counted using a Trypan Blue exclusion, and then cells were diluted with serum-free incubation medium to a working cell density of 0.5×10^6 viable cells/mL. Then, a portion of the hepatocytes at 0.5×10^6 viable cells/mL was boiled for 5 minutes prior to adding to the plate as negative control to eliminate the enzymatic activity so that little or no substrate turnover should be observed. The boiled hepatocytes were used to prepare negative samples. Aliquots of 198 μL hepatocytes were dispensed into each well of a 96-well non-coated plate. The plate was placed in the incubator on an orbital shaker at 500 rpm for approximately 10 minutes. Aliquots of 2 μL of the 100 μM test compound or positive control were added into respective wells of the non-coated 96-well plate to start the reaction. This assay was performed in duplicate. The plate was incubated in the incubator on an orbital shaker at 500 rpm for the designated time points. Twenty-five microliter of contents were transferred and mixed with 6 volumes (150 μL) of cold acetonitrile with IS (200 nM imipramine, 200 nM labetalol and 200 nM diclofenac) to terminate the reaction at time points of 0, 15, 30, 60, 90 and 120 minutes. Samples were centrifuged at 3,220 g for 25 minutes and aliquots of 150 μL of the supernatants were used for LC-MS/MS analysis. For data analysis, all calculations were carried out using Microsoft Excel. Peak areas were determined from extracted ion chromatograms. The in vitro half-life (t1/2) of parent compound was determined by regression analysis of the percent parent disappearance vs. time curve. The in vitro half-life (in vitro t1/2) was determined from the slope value: in vitro t1/2=0.693/k. […] Scaling factors for in vivo intrinsic clearance prediction using human hepatocytes are listed as: liver weight (g liver/kg body weight): 25.7; hepatocyte concentration (10^6 cells/g liver): 99; scaling factor: 2544.3.

The test system of series [3] is pooled human hepatocytes. Put plainly: Human hepatocyte clearance study. Format: in vitro ADME. Here is the method: as §1
In series [4] the test system is kynurenine production in HeLa cells. As to the kind of experiment: Inhibition of kynurenine production in HeLa cells. Format: cell-based, human. The following applies: 48 h, HeLa cells, human IFN-γ 50 ng/mL, kynurenine read at 480 nm, read-out: IC50.
Series [5] has as its system LPS-induced plasma kynurenine. As to the kind of experiment: Inhibition of LPS induced plasma kynurenine in mice. It counts as in vivo. The following applies: Balb/c mouse, 5 mg/kg LPS i.p. plus oral 30 mpk. Here is the method:
The effect of compounds described herein on the inhibition of lipopolysaccharide (LPS)-induced plasma kynurenine in mouse was determined. Female Balb/c mouse (˜20 g, obtained from Vital River Laboratory Animal Co. LTD) was treated with either vehicle control (saline) or 5 mg/kg LPS via intraperitoneal injection, followed by an oral dose of 30 mpk compound 9 within 5 minutes of LPS injection. Blood samples (500 uL) were collected into K2EDTA tube via retro-orbital puncture at 12 and 24 hrs (terminal bleeding) after treatment with LPS or LPS plus compound 9. For vehicle control group, plasma samples were collected at 24 hour post dose. Blood samples were put on ice after collection and centrifuged at 4° C. (2000 g, 5 minutes) immediately after collection to obtain the plasma. Plasma kynurenine level was determined by LC-MS/MS analysis. Each group contains 3 mice and mean plasma kynurenine level was plotted in FIG. 2.

For series [6], the system named is T cells and HeLa cells co-culture. Put plainly: T cells and HeLa cells co-culture assay (IFN-gamma production). It counts as cell-based, human. The following applies: CD3 T cells + HeLa cells, 72 hr, FIG. 4, read-out: EC50, production of IFN-gamma in the T cells and HeLa cells co-culture media. The protocol: HeLa cells were seeded into 96-well plate (5000 cells per well in 100 μL of cell growth media DMEM with 10% FBS and 1% pen/strep) and incubated at 37° C. with 5% CO2. After overnight incubation, 200 μL of INF-gamma (50 ng/ml in growth media) was added to the plate and returned to incubator for another 48 hr. SepMater™-50 centrifuge tube was used to isolate PBMC from human donor according to manufacture's instruction (Stemcell). The CD3 T cell was then isolated from the PBMC using EasySep Human T cell isolation kit (Stemcell). Wash the 96-well plat twice with 200 μL of co-culture media (RPMI-1640+10% FBS+1% Pen/strep). Adjust the CD3 T cells density to 5×10^5 cells/ml with high dose anti-CD3/CD28 beads and co-culture medium (RPMI-1640+10% FBS+1% Pen/strep) and seed 200 μL/well into 96-well plate. Compound at different concentration was added to each well and the plate was incubated for a further 72 hr. Level of INF-gamma in the co-culture media (100 μL) was analyzed using the Human IFN-gamma ELISA Ready-SET-GO kit from eBioscience.

Where two headings read alike, the source gives them in different places.

The term IC50 denotes the concentration needed to halve the response being measured. In turn, `CC(C)CN(CC(C)C)c1ccc(C2(C(=O)O)CCCC2)cc1NC(=O)Nc1ccc(F)cc1F` [Compound 9, 1-[4-[bis(2-methylpropyl)amino]-3-[[(2,4-difluorophenyl)carbamoyl]amino]phenyl]cyclopentane-1-carboxylic acid] came in with an IC50 in series [1] (Homo sapiens, SK-OV-3, FIG. 1) of 7.4 nM. Also, in series [2], the CLint scaled at 1 µM worked out at 10 mL/min/kg, the hepatocyte CLint at 1 µM came out at 3 µL/min/1e6 cells and the half-life at 1 µM is 7.05 h. Also, in series [3] (pooled human hepatocytes), the “Human Hepatocyte Remaining Percentage @ 120 min” value is 79. Besides, in series [4] (Homo sapiens, HeLa), the IC50 was 2.2 nM. The “drop of plasma kynurenine compared to the LPS treatment alone” value in series [5] (12 hour time point) turned out to be 72%. In series [5] (24 hour time point), the “drop of plasma kynurenine compared to the LPS treatment alone” value is 85%.
The term EC50 denotes the midpoint of the concentration-response curve. In the case of `CCN(c1ncc(C2(C(=O)O)CCC2)cc1Nc1ccc(Cl)cc1)C1CCOCC1` [Compound 120], in series [2], the CLint scaled at 1 µM turned out to be 3.5 mL/min/kg, the hepatocyte CLint at 1 µM is 1.4 µL/min/1e6 cells and the half-life at 1 µM worked out at 17.1 h. Besides, the “Human Hepatocyte Remaining Percentage @ 120 min” value in series [3] (pooled human hepatocytes) was determined as 94. Moreover, the IC50 in series [4] (Homo sapiens, HeLa) is 0.1 nM. Besides, in series [6] (Homo sapiens), the EC50 was 9.1 nM.
In the case of `NS(=O)(=O)NCCNc1nonc1/C(=N/O)Nc1ccc(F)c(Br)c1` [INCB-24360, reference compound], the IC50 in series [1] (FIG. 1) came out at 10.2 nM. Also, in series [3] (pooled human hepatocytes), the “Human In vitro Clint (μL/min/10^6 cells)” value was determined as 19 μL/min/10^6 cells, the “Human In vitro T1/2” value was 1.22 h and the “Human Hepatocyte Remaining Percentage @ 120 min” value worked out at 35. In series [3] (scaled up from in vitro t1/2, scaling factor 2544.3), the “Human Scale-up Clint” value is on record as 48 mL/min/kg. The IC50 in series [4] came to 6.9 nM. Moreover, the EC50 in series [6] worked out at 41 nM.
